US6765011B2, “7-heterocyclyl quinoline and thieno[2,3-b]pyridine derivatives useful as antagonists of gonadotropin releasing hormone” (Ortho-McNeil Pharmaceutical, Inc., priority 2000, dated 2004)
Counter-ions that a name gives are not always drawn.

Key:
[1] = target: T1, membrane-bound GnRH receptor (Rattus norvegicus, UniProt P30969); assay: GnRH Receptor Binding Assay ([125I]-histrelin competition, rat pituitary homogenate); conditions: [125I]-histrelin displacement, female and male rat pituitary homogenate; values without parentheses = IC50; read-out: Binding, IC50 (B % @ 30 μM)
T1 construct: from tissue; host or cells: rat pituitary homogenate (female and male, equal mixture)
T1 sequence (P30969 1-327): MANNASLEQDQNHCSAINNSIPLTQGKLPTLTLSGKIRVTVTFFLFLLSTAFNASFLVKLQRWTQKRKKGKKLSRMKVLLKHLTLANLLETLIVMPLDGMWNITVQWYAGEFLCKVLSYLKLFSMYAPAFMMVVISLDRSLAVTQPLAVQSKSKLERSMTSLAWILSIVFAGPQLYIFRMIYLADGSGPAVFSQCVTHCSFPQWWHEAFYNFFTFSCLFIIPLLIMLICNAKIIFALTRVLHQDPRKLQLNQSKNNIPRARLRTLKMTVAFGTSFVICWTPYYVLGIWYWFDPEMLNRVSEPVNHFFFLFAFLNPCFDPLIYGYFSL
Text: GnRH Receptor Binding Assay
A homogenate prepared from an equal mixture of female and male rat pituitaries was used as the source of the membrane-bound GnRH receptor. The receptor was allowed to interact in solution with [^125I]-histrelin alone or in combination with a competitive ligand (the compound being tested). The bound radiolabeled ligand was separated from the free (unbound) radiolabeled ligand by filtration through glass filter mats using a 96-well plate harvesting system (Tomtec Mach II 96). In the absence of a competitive ligand, a maximum amount of radiolabeled ligand is bound to the receptor and trapped by the glass filter mats. […] The amount of receptor-bound [^125I]-histrelin on the filter mat was determined using a Wallac Betaplate™ Liquid Scintillation Counter. Binding was determined as follows:
B0 maximum concentration of compound
Average NSB: (NSB1+NSB2)/2
Corrected B0: Average B0−Average NSB
% inhibition of Corrected B0 (or maximum response) was calculated as follows:
% Inhibition=100−[((Actual counts per minute−Average NSB)/Corrected B0)*100]

[2] = target: T2, GnRHR (Hek 293 cells with the GnRHR gene) (Homo sapiens, UniProt P30968); assay: LUCIFERASE Assay for GnRH (hCG promoter luciferase reporter); type: cell-based; conditions: antagonist format, against 0.6 nM Histrelin
T2 construct: expressed in transfected cells; host or cells: HEK 293 cells carrying the GnRHR gene, transfected with an hCG promoter-luciferase reporter
T2 sequence (P30968 1-328): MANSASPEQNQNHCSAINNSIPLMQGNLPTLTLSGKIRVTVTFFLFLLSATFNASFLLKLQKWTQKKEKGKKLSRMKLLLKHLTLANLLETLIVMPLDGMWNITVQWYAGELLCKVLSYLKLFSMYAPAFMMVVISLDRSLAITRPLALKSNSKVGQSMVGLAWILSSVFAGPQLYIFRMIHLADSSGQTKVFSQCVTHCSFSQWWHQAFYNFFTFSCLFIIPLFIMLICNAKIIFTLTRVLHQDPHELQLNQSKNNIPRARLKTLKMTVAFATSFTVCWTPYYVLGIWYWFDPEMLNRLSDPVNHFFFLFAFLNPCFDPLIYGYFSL
Procedure: LUCIFERASE Assay for GnRH
Hek 293 cells with the GnRHR gene were transfected with the hCG promoter and the luciferase reporter system. On day 1, the cells were plated at a density of 80,000 cells per well on a Poly-D-lysine pre-coated 96 well plate. The plates were incubated at 37° C. for 24 hours. On day 2, the spent media was decanted and replaced with fresh media. Test compounds, standard and controls were added to individual wells. All the dilutions were done in 7.5% DMSO/(αMEM media. The assay was run in both agonist and antagonist format. For the antagonist format, the assay measurements were run against a standard of 0.6 nM Histrelin. On day 3, the levels of luciferase production were measured in a chemiluminescence assay using Enhanced Luciferase Assay Kit. The results were expressed as % Inhibition using the following formula: […]
RLU Relative Light Units, a measure of chemiluminescence
Agonist [RLU value(test compound)−(Background/0.6 nM Histrelin)−Background]*100
Antagonist (1−[(RLU value−(Background/0.6 nM Histrelin)−Background)*100])
The calculated percentages were plotted on a graph using Graph Pad Prizm and the IC50/EC50 values determined.

[3] = system: rat anterior pituitary cells; assay: Primary Pituitary Cell Culture Assay (luteinizing hormone in media after 1 nM GnRH); type: cell-based; conditions: inhibition of luteinizing hormone release, male rat primary pituitary cells
Procedure: Primary Pituitary Cell Culture Assay
Male rats (between immature and adult) were sacrificed and the anterior pituitaries were collected from them. The pituitaries were dissociated and the cells were plated at a concentration of 0.33×10^6 cells/well on day 1. On day 3 the media on the cells was flushed and replaced with fresh media. The test compound was then added to the plated cells at a concentration ranging from 1 nM to 1000 nM. The plates were incubated at 37° C. at 5% CO2 for 2 days. On Day 5 the media was flushed again and replaced with fresh media. To the plates were then added test compound and 1 nM GnRH. The cells were incubated for 4 hours, the media was collected by centrifuging the plates at 1200 rpm Sorvall RT7 for 10 minutes, 900 μL of supernatant was pipetted from each well and dispensed to a 96 well plate. The deep well plates were covered and stored at […] for a day. The plates are then evaluated by ELISA ([…]) to determine the concentration of lutenizing hormone in the media. The assay was repeated at varying concentrations of the test compounds to determine IC50 values. The IC50 value is defined as the concentration of test compound at which 50% inhibition was achieved.

IC50 [1] [µM]	IC50 [2] [µM]	IC50 [3] [µM]	Compound
32	10		CCOC(=O)c1cn(Cc2c(F)cccc2F)c2cc(-c3ccsc3)c(CN(C)Cc3ccccc3)cc2c1=O [Compound 1, 6-(N-Benzyl-N-methylaminomethyl)-7-(thien-3-yl)-1-(2,6-difluorobenzyl)-1,4-dihydro-4-oxoquinoline-3-carboxylic Acid Ethyl Ester]
	3.26	2.43	CCOC(=O)c1cn(Cc2c(F)cccc2F)c2cc(-c3cc4ccccc4o3)c(CN(C)Cc3ccccc3)cc2c1=O [Compound 2, 6-(N-Benzyl-N-methylaminomethyl)-7-(benzofuran-2-yl)-1-(2,6-difluorobenzyl)-1,4-dihydro-4-oxoquinoline-3-carboxylic Acid Ethylester]
1			CN(Cc1ccccc1)Cc1cc2c3n[nH]c(=O)c-3cn(Cc3c(F)cccc3F)c2cc1-c1cc2ccccc2o1 [Compound 4, 2,5-Dihydro-7-(benzofuran-2-yl)-8-[[methyl(phenylmethyl)amino]methyl]-5-[(2,6-difluorophenyl)methyl]-3H-pyrazolo[4,3-c]quinolin-3-one]

More lines, now with the values behind:

Compound	IC50 [1] [µM]	IC50 [2] [µM]	IC50 [3] [µM]
CN(Cc1ccccc1)Cc1cc2c3n[nH]c(=O)c-3cn(Cc3c(F)cccc3F)c2cc1Br [Compound 3, 2,5-Dihydro-7-bromo-8-[[methyl(phenylmethyl)amino]methyl]-5-[(2,6-difluorophenyl)methyl]-3H-pyrazolo[4,3-c]quinolin-3-one]	16		
CN(Cc1ccccc1)Cc1cc2c3nnc(OCc4ccccc4)c-3cn(Cc3c(F)cccc3F)c2cc1-c1cc2ccccc2o1 [Compound 5, 7-(Benzofuran-2-yl)-3-[(phenylmethyl)oxy]-5-[(2,6-difluorophenyl)methyl]-8-[[methyl(phenylmethyl)amino]methyl]-5H-pyrazolo[4,3-c]quinoline]	5		
CCOc1nnc2c3cc(CN(C)Cc4ccccc4)c(-c4cc5ccccc5o4)cc3n(Cc3c(F)cccc3F)cc1-2 [Compound 6, 7-(Benzofuran-2-yl)-3-ethoxy-5-[(2,6-difluorophenyl)methyl]-8-[[methyl(phenylmethyl)amino]methyl]-5H-pyrazolo[4,3-c]quinoline HCl]	5		
COc1ccc(-c2sc3c(c2CN(C)Cc2ccccc2)c(=O)c(C(=O)NN)cn3Cc2ccccc2OC)cc1 [Compound 7, 4,7-Dihydro-2-(4-methoxyphenyl)-7-[(2-methoxyphenyl)methyl]-3-[[methyl(phenylmethyl)amino]methyl]-4-oxo-thieno[2,3-b]pyridine-5-carboxylic Acid, Hydrazide bis-Hydrochloride]	1.6		1.48
COc1ccc(-c2sc3c(c4n[nH]c(=O)c-4cn3Cc3ccccc3OC)c2CN(C)Cc2ccccc2)cc1 [Compound 8, 2,5-Dihydro-7-(4-methoxyphenyl)-5-[(2-methoxyphenyl)methyl]-8-[[methyl(phenylmethyl)amino]methyl]-3H-pyrazolo[3,4-d]thieno[2,3-b]pyridin-3-one]	30		
